Laboratory results as given in US20160024051A1, “SALTS AND SOLID FORMS OF ISOQUINOLINONES AND COMPOSITION COMPRISING AND METHODS OF USING THE SAME” (INFINITY PHARMACEUTICALS, INC., priority 2013, published 2016).

Assays:
[1] = Storage at 40° C./75% RH (elevated humidity) for 1 week, re-analysis by XRPD/HPLC; conditions: for Storage 40° C./75% RH: salt screen solids, 1 week, XRPD pattern or observation
Experimental: The crystalline solids were filtered, dried at ambient conditions, and stored at 40° C./75% RH for 1 week and analyzed by ^1H NMR/IC.
Samples from the screen using amorphous free base Compound 1 were analysed by ^1H-NMR and DSC, and re-analysis by XRPD was also carried out after drying at 50° C./vacuum and storage at 40° C./75% RH (the same sample was dried and stored at elevated humidity).

[2] = Polymorphism study: maturation (temperature cycling RT to 50° C.) in solvents, XRPD; type: physicochemical
Experimental: One of 21 solvents was added to each vial in a number of aliquots (up to 30 volumes), with shaking. All the samples were then placed under maturation between RT to 50° C. (4 hours at each temperature) for 3 days. After maturation the samples were analysed by XRPD. Clear solutions were cooled to −20° C. (freezer). If no precipitation occurred samples were evaporated at RT.
Samples were placed under maturation between RT-50° C. (4 hours cycle) for 3 days. After maturation the samples were analyzed by XRPD. Clear solutions were then cooled to −20° C. (freezer). If no precipitation occurred, samples were evaporated at RT.
The corresponding solvents and solvent mixtures were added in portions of (a total of) 5, 10, 20, and 30 volumes at 50° C., with shaking, aiming for clear solutions. After each addition, the vials were allowed to shake for 20 minutes, after which observations were made. Solutions were allowed to evaporate, whereas slurries were set for 8 hour temperature cycling maturation, between RT and 50° C., for 5 days.
The oils obtained by solvent evaporation were used for the maturation screen. Anhydrous solvents (5 volumes; 100 μL) were used in order to minimise the amount of water present. Any solutions were allowed to slowly evaporate, whereas slurries were set for 8 hour temperature cycling maturation, between RT and 50° C. […] These were matured for a further 24 hours before performing XRPD analysis.
The selected solvents and solvent mixtures (5 to 20 volumes) were added with stirring. Any solutions were allowed to slowly evaporate, whereas slurries were set for 8 hour temperature cycling maturation, between RT and 50° C., for 2 days.
Crystals were ground in order to analyse them by XRPD. Suspensions were set for temperature cycling for a total of five days after which time XRPD analysis was carried out.

[3] = Gravimetric vapour sorption (GVS); type: physicochemical; conditions: for GVS: moisture on loading: loaded at 40% RH, 25° C.; for GVS: XRPD after the experiment: re-analysis by XRPD after GVS
Experimental: Sorption isotherms were obtained using a Hiden IGASorp moisture sorption analyser, controlled by CFRSorp software. The sample temperature was maintained at 25° C. by a Huber re-circulating water bath. The humidity was controlled by mixing streams of dry and wet nitrogen, with a total flow rate of 250 ml/min. The relative humidity (RH) was measured by a calibrated Vaisala RH probe (dynamic range of 0-95% RH), located near the sample. The weight change, (mass relaxation) of the sample as a function of % RH was constantly monitored by the microbalance (accuracy ±0.001 mg). Typically 10-20 mg of sample was placed in a tared mesh stainless steel basket under ambient conditions. The sample was loaded and unloaded at 40% RH and 25° C. (typical room conditions). A moisture sorption isotherm was performed as outlined below (2 scans giving 1 complete cycle). The standard isotherm was performed at 25° C. at 10% RH intervals over a 0-90% RH range.
The software uses a least squares minimisation procedure together with a model of the mass relaxation, to predict an asymptotic value. The measured mass relaxation value must be within 5% of that predicted by the software, before the next % RH value is selected. The minimum equilibration time was set to 1 hour and the maximum to 4 hours. The sample was recovered after completion of the isotherm and re-analysed by XRPD.

[4] = Solubility assessment using FB Hydrate Form 2; type: physicochemical; conditions: for Solubility: (RT)
Experimental: The best solvent systems (clear solutions) were methanol:anisole 1:1 and DMSO (10 volumes, at RT), dioxane (10 volumes, 50° C.), chloroform (20 volumes, RT). […]

[5] = Solubility of free base hydrate and salts versus pH (Table 24); type: physicochemical

In the case of `COc1cc(-c2cccc3cc([C@H](C)Nc4nc(N)ncc4C#N)n(-c4ccccc4)c(=O)c23)ccn1` [listing 1 of 2 here], the “Storage 40° C./75% RH” value ([1]; listed as 1-2-Ethane disulfonic acid) is reported as “acid salt Pattern 1”.

With `COc1cc(-c2cccc3cc([C@H](C)Nc4nc(N)ncc4C#N)n(-c4ccccc4)c(=O)c23)ccn1` [listing 2 of 2 here] the “Storage 40° C./75% RH” value ([1]; listed as 2-Hydroxyethane sulfonic acid) was “Deliquesced”.

With `COc1cc(-c2cccc3cc([C@H](C)Nc4nc(N)ncc4C#N)n(-c4ccccc4)c(=O)c23)ccn1.O=S(=O)(O)O.O=S(=O)(O)O` [Amorphous Bis-Sulfuric Acid Salt] the XRPD ([2]; amorphous oil in anhydrous BuOAc 100 μL, maturation 48 h, RT-50° C. cycling) was “Amorphous”, the XRPD ([2]; amorphous oil in anhydrous DCM 100 μL, maturation 48 h, RT-50° C. cycling) was “Amorphous” and the XRPD ([2]; amorphous oil in anhydrous DIPE 100 μL, maturation 48 h, RT-50° C. cycling) was “Amorphous”. The XRPD ([2]; amorphous oil in anhydrous Dioxane 100 μL, maturation 48 h, RT-50° C. cycling) was “Amorphous glass”, the XRPD ([2]; amorphous oil in anhydrous EtOAc 100 μL, maturation 48 h, RT-50° C. cycling) was “Amorphous” and the XRPD ([2]; amorphous oil in anhydrous IPA 100 μL, maturation 48 h, RT-50° C. cycling) was “Amorphous glass”. The XRPD ([2]; amorphous oil in anhydrous Methanol 100 μL, solution set for evaporation) was “Oil”, the XRPD ([2]; amorphous oil in anhydrous TBME 100 μL, maturation 48 h, RT-50° C. cycling) was “Amorphous” and the XRPD ([2]; amorphous oil in anhydrous THF 100 μL, maturation 48 h, RT-50° C. cycling) was “Amorphous”. For the same compound, the XRPD ([2]; amorphous oil in anhydrous Toluene 100 μL, maturation 48 h, RT-50° C. cycling) was “Amorphous”.

In the case of `CC(=O)O.COc1cc(-c2cccc3cc([C@H](C)Nc4nc(N)ncc4C#N)n(-c4ccccc4)c(=O)c23)ccn1.COc1cc(-c2cccc3cc([C@H](C)Nc4nc(N)ncc4C#N)n(-c4ccccc4)c(=O)c23)ccn1` [Batch 1 of Form 6], the “GVS: second cycle reversible moisture uptake” value ([3]; between 0-90% RH) is reported as “cycle shows 4.9%”, the “GVS: moisture on loading” value [3] is reported as 6.3% w/w moisture on and the “GVS: XRPD after the experiment” value [3] is reported as “anhydrous Form 4”.

With `COc1cc(-c2cccc3cc([C@H](C)Nc4nc(N)ncc4C#N)n(-c4ccccc4)c(=O)c23)ccn1.O` [FB Hydrate Form 2] the XRPD ([2]; FB Hydrate Form 2 in 1-butanol, Maturation) was “Crystalline Form 5”, the XRPD ([2]; FB Hydrate Form 2 in 2-MeTHF, Evaporation yielded oil, maturation of oil) was “Crystalline Form 5” and the XRPD ([2]; FB Hydrate Form 2 in Acetone, Maturation) was “Crystalline Form 5”. For the same compound, the XRPD ([2]; FB Hydrate Form 2 in DCM:MeOH 1:1, Crystallization in fridge) was “Crystalline Form 5 + Form 1”, the XRPD ([2]; FB Hydrate Form 2 in DCM, Crystallization in fridge) was “Crystalline Form 5” and the XRPD ([2]; FB Hydrate Form 2 in DMSO, No crystallization in fridge, set for evaporation) was “Amorphous”. For the same compound, the XRPD ([2]; FB Hydrate Form 2 in Dioxane, Evaporation yielded oil, maturation of oil) was “Crystalline Form 5 + Form 3”, the XRPD ([2]; FB Hydrate Form 2 in EtOAc, Maturation) was “Crystalline Form 5” and the XRPD ([2]; FB Hydrate Form 2 in EtOH/5% water, Maturation) was “Crystalline Form 5”. For the same compound, the XRPD ([2]; FB Hydrate Form 2 in EtOH/water 1:1, Maturation) was “Crystalline Form 2”, the XRPD ([2]; FB Hydrate Form 2 in EtOH, Maturation) was “Crystalline Form 5” and the XRPD ([2]; FB Hydrate Form 2 in IPA, Maturation) was “Crystalline Form 5”. For the same compound, the XRPD ([2]; FB Hydrate Form 2 in IPAc, Maturation) was “Crystalline Form 5”, the XRPD ([2]; FB Hydrate Form 2 in MIBK, Maturation) was “Crystalline Form 5” and the XRPD ([2]; FB Hydrate Form 2 in MeCN/5% water, Crystallization in fridge) was “Crystalline Form 5”. For the same compound, the XRPD ([2]; FB Hydrate Form 2 in MeOH/anisole, Crystallization in fridge) was “Crystalline Form 5”, the XRPD ([2]; FB Hydrate Form 2 in THF, Crystallization in fridge) was “Crystalline Form 5” and the XRPD ([2]; FB Hydrate Form 2 in acetonitrile, Maturation) was “Crystalline Form 5”. The XRPD ([2]; FB Hydrate Form 2 in chloroform, Cooling in fridge yielded oil, maturation of oil) was “Crystalline Form 5”, the “Solubility at 50° C.” value ([4]; 2-MeTHF, 50 vols) was “✓” and the “Solubility at 50° C.” value ([4]; DCM, 75 vols) was “✓”. For the same compound, the “Solubility at 50° C.” value ([4]; DCM:MeOH 1:1, 75 vols) was “✓”, the Solubility ([4]; DMSO, 10 vols) was “✓” and the “Solubility at 50° C.” value ([4]; Dioxane, 10 vols) was “✓”. The “Solubility at 50° C.” value ([4]; MeCN/5% water, 75 vols) was “✓”, the Solubility ([4]; MeOH/anisole, 10 vols) was “✓” and the “Solubility at 50° C.” value ([4]; THF, 50 vols) was “Almost”. The “Solubility at 50° C.” value ([4]; THF, 75 vols) was “✓” and the Solubility ([4]; chloroform, 20 vols) was “✓”.

With `COc1cc(-c2cccc3cc([C@H](C)Nc4nc(N)ncc4C#N)n(-c4ccccc4)c(=O)c23)ccn1` [Form 4 of Free Base Compound 1] the “GVS: moisture uptaken” value ([3]; between 70-90% RH, with hysteresis on desorption) was 4.8 % w/w, the “GVS: moisture on loading” value [3] was 0.3 % w/w and the “GVS: XRPD after the experiment” value [3] was “No changes by XRPD after the experiment”.

For `COc1cc(-c2cccc3cc([C@H](C)Nc4nc(N)ncc4C#N)n(-c4ccccc4)c(=O)c23)ccn1` [Form 6 of the free base of Compound 1], the “GVS behaviour (hydration / desolvation)” value ([3]; text statements, listed as Form 6) was “Desolvation to the anhydrous Form 4” and the “solid form after storage at elevated humidity” value ([1]; elevated humidity conditions, not specified in the sentence, listed as Form 6) was “conversion to Hydrate Form 3”.

`COc1cc(-c2cccc3cc([C@H](C)Nc4nc(N)ncc4C#N)n(-c4ccccc4)c(=O)c23)ccn1.O=C(O)/C=C\C(=O)O` [Maleic acid salt] gave a Solubility ([5]; 0.1N HCl, 37° C., at saturation) of 34 mg/mL, a Solubility ([5]; Simulated Gastric Fluid) greater than 19 mg/mL and a Solubility ([5]; Simulated Intestinal Fluid) of 0.01 mg/mL. The Solubility ([5]; Water (pH 4.43)) was ~0.2 mg/mL (pH 4.43), the Solubility ([5]; citrate buffer, pH 2.5, at 37° C.) was 3.13 mg/mL at 37 °C and the Solubility ([5]; citrate buffer, pH 2.5, at RT) was 1.8 mg/mL at RT;. The Solubility ([5]; pH 1.6, 37° C.) was greater than 4, the Solubility ([5]; pH 1.6, RT) was greater than 4 and the Solubility ([5]; pH 2.5, 37° C.) was 3.07. For the same compound, the Solubility ([5]; pH 2.5, RT) was 3.57, the Solubility ([5]; pH 2.9, 37° C.) was 1.62 and the Solubility ([5]; pH 2.9, RT) was 1.39. It also gave a Solubility ([5]; pH 3.8, 37° C.) of 0.31 and a Solubility ([5]; pH 3.8, RT) of 0.24.
